This is an account of results in ChEMBL document CHEMBL1153391 (J Med Chem, 2009).

The target in one data set is Cathepsin B (Homo sapiens, UniProt P07858). Nature of the data set: Inhibition of cathepsin B.
A short description of data set [1]: Inhibition of Plasmodium falciparum falcipain-2.
A further data set deals with Procathepsin L (Homo sapiens, UniProt P07711). The data set is described as follows: Inhibition of cathepsin L.
The test system of another data set is Plasmodium falciparum. Nature of the data set: Antiplasmodial activity against Plasmodium falciparum FCBR. It counts as functional, organism-based.
Data set [2] in a line: Cytotoxicity against mouse J774.1 cells. The data set is classed as cell-based.
Data set [3] is described as follows: Cytotoxicity against human HEK293T cells. The data set is classed as cell-based. The settings on record: HEK-293T.
Data set [4] can be described thus: Cytotoxicity against mouse DC.
Data set [5] is described as follows: Apparent permeability across human Caco-2 cells. It counts as ADME, cell-based. A general note: Passage across Caco-2 layers is used to estimate intestinal permeability.
Data set [6] can be described thus: Apparent permeability from apical to basolateral side of human Caco-2 cells.
The nature of data set [7]: Apparent permeability from basolateral to apical side of human Caco-2 cells.

The structures appear in SMILES notation. Bounds are passed on as bounds.

The Ki is the equilibrium dissociation constant of an inhibitor or competing ligand from its target. Read a low Ki as a stronger hold on the target. One may read the IC50 as the concentration needed to halve the response being measured. In general, Papp refers to the rate of passage across a membrane or cell layer, normalised by area and donor concentration. As usually defined, the Papp A→B is the apparent permeability from the apical to the basolateral side of a cell layer. By Papp B→A is commonly meant how fast a substance crosses the layer from the basolateral side.

Procathepsin L, sequence (P07711 whole entry): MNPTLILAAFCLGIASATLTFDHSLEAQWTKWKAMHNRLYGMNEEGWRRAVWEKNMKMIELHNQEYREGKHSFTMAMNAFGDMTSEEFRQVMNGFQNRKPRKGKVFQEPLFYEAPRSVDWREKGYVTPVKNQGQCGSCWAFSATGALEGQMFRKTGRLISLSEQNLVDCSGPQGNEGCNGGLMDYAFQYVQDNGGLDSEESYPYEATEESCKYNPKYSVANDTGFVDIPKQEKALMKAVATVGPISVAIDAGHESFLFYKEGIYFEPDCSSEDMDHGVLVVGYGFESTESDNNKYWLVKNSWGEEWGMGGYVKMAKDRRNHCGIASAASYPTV

For the molecule `CN(C)C(=O)/C=C/CNC(=O)CN1C(=O)[C@@H](COC(=O)Nc2ccc(Cl)cc2C(F)(F)F)N=C(c2ccccc2)c2ccccc21`, the Ki was determined as 0.85 µM on Cathepsin B, 0.076 µM in [1] and 1.9 µM on Procathepsin L. The molecule also registered a concentration for half-maximal inhibition (IC50) in the data set with Plasmodium falciparum of more than 100 µM.

Turning to `CC(=O)/C=C/[C@H](CCc1ccccc1)NC(=O)CN1C(=O)[C@@H](COC(=O)Nc2ccc(Cl)cc2C(F)(F)F)N=C(c2ccccc2)c2ccccc21`, the Ki at Cathepsin B was determined as 8.4 µM; on Procathepsin L it was 7.5 µM.

`COC(=O)/C=C/[C@H](CCc1ccccc1)NC(=O)CN1C(=O)[C@@H](COC(=O)Nc2ccc(Cl)cc2C(F)(F)F)N=C(c2ccccc2)c2ccccc21`: the inhibition constant Ki turned out to be 13.7 µM at Cathepsin B and 2.7 µM on Procathepsin L.

Consider `CN(C)C(=O)/C=C/[C@H](CCc1ccccc1)NC(=O)CN1C(=O)[C@@H](COC(=O)Nc2ccc(Cl)cc2C(F)(F)F)N=C(c2ccccc2)c2ccccc21`, for which the inhibitory constant (Ki) turned out to be 6.4 µM at Cathepsin B, 0.076 µM in [1] and 7.4 µM on Procathepsin L.

On to `COC(=O)/C=C/CNC(=O)CN1C(=O)[C@@H](COC(=O)Nc2ccc(Cl)cc2C(F)(F)F)N=C(c2ccccc2)c2ccccc21`, for which the IC50 is 31.3 µM in data set [2], 31.2 µM in data set [3], 30.4 µM in data set [4] and 12 µM in the data set with Plasmodium falciparum. The Ki at Cathepsin B stood at 7.3 µM; in data set [1] it was 0.017 µM; at Procathepsin L, 8.4 µM. In addition, the apparent permeability coefficient (Papp) in [5] stood at 3.82 ×10⁻⁶ cm/s.

For the molecule `N#C/C=C/CNC(=O)CN1C(=O)[C@@H](COC(=O)Nc2ccc(Cl)cc2C(F)(F)F)N=C(c2ccccc2)c2ccccc21`, the inhibition constant Ki on Cathepsin B was determined as 9.9 µM; in data set [1], 0.19 µM; on Procathepsin L, 3.2 µM. Half-maximal inhibition in the data set with Plasmodium falciparum (IC50) was put at 36.1 µM.

`CC(=O)/C=C/CNC(=O)CN1C(=O)[C@@H](COC(=O)Nc2ccc(Cl)cc2C(F)(F)F)N=C(c2ccccc2)c2ccccc21`: the Ki on Cathepsin B is 6 µM; at Procathepsin L it was 5.9 µM. In addition, the IC50 with Plasmodium falciparum came out at 9.3 µM.

Turning to `CN/C(=N/CCSCc1nc[nH]c1C)NC#N` [CIMETIDINE], the Papp A→B in [6] came out at 0.56 ×10⁻⁶ cm/s. In addition, the basolateral-to-apical permeability (Papp B→A) in data set [7] was 1.5 ×10⁻⁶ cm/s.

On to `CC(C)C[C@H](NC(=O)[C@H]1O[C@@H]1C(=O)O)C(=O)NCCCCN=C(N)N` [E-64], for which the inhibition constant Ki in [1] amounted to 0.29 µM.

Consider `CC[C@]1(O)C[C@@H]2CN(CCc3c([nH]c4ccccc34)[C@@](C(=O)OC)(c3cc4c(cc3OC)N(C)[C@H]3[C@@](O)(C(=O)OC)[C@H](OC(C)=O)[C@]5(CC)C=CCN6CC[C@]43[C@@H]65)C2)C1` [VINBLASTINE], for which the Papp in data set [5] was found to be 0.51 ×10⁻⁶ cm/s.
